Measured values reported in publication doi:10.1101/2023.02.27.530254, “Large library docking for cannabinoid-1 receptor agonists with reduced side effects” (bioRxiv, 2024).

Target: hCB2 (Homo sapiens, UniProt P34972)
Test: Radioligand competition binding with [3H]-CP-55,940, HEK293 cells stably expressing human CB2R
Set-up: expressed in transfected cells
Conditions: Fig. S8, read-out: hCB2 pKi (converted)
Experimental: The binding affinities of the compounds were obtained by competition binding using membrane preparations from rat brain (source of CB1) or HEK293 cells stably expressing human CB2R receptors and [^3H]-CP-55,940 as the radioligand, as described. The results were analyzed using nonlinear regression to determine the IC50 and Ki values for each ligand (Prism by GraphPad Software, Inc., San Diego, CA). The Ki values are expressed as the mean of two to three experiments each performed in triplicate.

Sequence of hCB2 (P34972 whole entry): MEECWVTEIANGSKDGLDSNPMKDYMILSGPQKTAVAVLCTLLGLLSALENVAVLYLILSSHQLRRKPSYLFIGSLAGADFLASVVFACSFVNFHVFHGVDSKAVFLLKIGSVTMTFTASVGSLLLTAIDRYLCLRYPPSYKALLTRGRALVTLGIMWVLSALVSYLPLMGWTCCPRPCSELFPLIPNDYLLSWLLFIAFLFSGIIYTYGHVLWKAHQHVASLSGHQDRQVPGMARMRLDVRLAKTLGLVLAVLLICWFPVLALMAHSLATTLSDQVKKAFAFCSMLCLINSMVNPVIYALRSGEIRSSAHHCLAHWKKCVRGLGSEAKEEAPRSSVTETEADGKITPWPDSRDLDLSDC

COC(=O)C(C)(NC(=O)c1cc(C)n(-c2cccc(C(F)(F)F)c2)n1)c1cccs1 (stereo not shown) [‘4042]
Ki: 2.51 nM
